Source: patent US20020137929A1, “1 - (3-heterocyclylphenyl) isothiourea, -isourea, -guanidine and -amidine herbicidal agents” (Intellectual Property Department, BASF Aktiengesellschaft, priority 1998, published 2002)

Legend:
[1] = test system: ABUTH (Velvetleaf); experiment: Preemergence herbicidal evaluation; type: in vivo, Abutilon theophrasti; details: rated 4-5 weeks after treatment
In short: (§1)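 Scores (0–9) reflect visual comparison with control plants for stand, vigor, malformation, size and chlorosis. Compound was applied to the soil after sowing, before emergence, as an aqueous acetone spray (about 0.0156–0.500 kg/ha), and cups were kept in a greenhouse for 4–5 weeks.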

[2] = test system: GLXMAW (Soybean, Williams); experiment: Preemergence herbicidal evaluation; type: in vivo, Glycine max, (L.) Merr. cv Williams; details: rated 4-5 weeks after treatment
In short: as §1

[3] = test system: ZEAMX (Corn, Field); experiment: Postemergence herbicidal evaluation; type: in vivo, Zea mays; details: postemergence
In short: (§2)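 Two-week seedlings sprayed postemergence at 40 psi; formulation: 1:1 acetone/water, 0.5% TWEEN 20; application ≈0.0156–0.500 kg/ha. Greenhouse grow-out, then 0–9 visual scoring at 4–5 weeks.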

[4] = test system: AMBEL (Ragweed, Common); experiment: Preemergence herbicidal evaluation; type: in vivo, Ambrosia artemisifolia; details: rated 4-5 weeks after treatment
In short: as §1

[5] = test system: CASOB (Sicklepod); experiment: Preemergence herbicidal evaluation; type: in vivo, Cassia obtusifolia; details: rated 4-5 weeks after treatment
In short: as §1

[6] = test system: SAGPY (Arrowhead (Pygmaea)); experiment: Preemergence weed control under flooded paddy conditions; type: in vivo, Sagittaria pygmaea; details: rated 3-4 weeks after treatment
In short: (§3)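 Ratings on a 0-9 visual scale cover stand, vigor, malformation, size, chlorosis and overall appearance relative to a control, taken three to four weeks post-treatment. Application was into flood water over freshly sown silt loam at roughly 0.0313 to 0.500 kg/ha.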

[7] = test system: SETVI (Foxtail, Green); experiment: Preemergence herbicidal evaluation; type: in vivo, Setaria viridis; details: rated 4-5 weeks after treatment
In short: as §1

[8] = test system: ECHCG (Barnyardgrass); experiment: Preemergence herbicidal evaluation; type: in vivo, Echinochloa crus-galli; details: rated 4-5 weeks after treatment
In short: as §1

[9] = test system: ECHORC (Watergrass (Calif.)); experiment: Postemergence weed control under flooded paddy conditions; type: in vivo, Echinochloa oryzoides; details: postemergence weeds
In short: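 Weeds 3 to 5 cm tall and rice seedlings at the 1.5 to 2.5 leaf stage were flooded, with water held 1.5 to 3 cm above the soil. Compounds in 50/50 v/v aqueous/acetone went into the flood water at about 0.0313 to 0.500 kg/ha. Visual 0-9 ratings versus control were made 3 to 4 weeks later.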

[10] = test system: GLXMAW (Soybean, Williams); experiment: Postemergence herbicidal evaluation; type: in vivo, Glycine max, (L.) Merr. cv Williams; details: postemergence
In short: as §2

[11] = test system: IPOHE (Morningglory, Ivyleaf); experiment: Postemergence herbicidal evaluation; type: in vivo, Ipomoea hederacea; details: postemergence
In short: as §2

[12] = test system: GALAP (Galium); experiment: Preemergence herbicidal evaluation; type: in vivo, Galium aparine; details: rated 4-5 weeks after treatment
In short: as §1

[13] = test system: CYPSE (Flatsedge); experiment: Preemergence weed control under flooded paddy conditions; type: in vivo, Cyperus serotinus; details: rated 3-4 weeks after treatment
In short: as §3

[14] = test system: AMBEL (Ragweed, Common); experiment: Postemergence herbicidal evaluation; type: in vivo, Ambrosia artemisifolia; details: postemergence
In short: as §2

CN(C)N1C(=O)CSC1=Nc1cc(-n2c(=O)cc(C(F)(F)F)n(C)c2=O)c(F)cc1Cl [Compound 23, 3-{4-Chloro-5-{[3-(dimethylamino)-4-oxo-2-thiazolidinylidine]amino}-2-fluorophenyl}-1-methyl-6-(trifluoromethyl)-2,4(1H,3H)-pyrimidinedione]
2.0: GLXMAW preemergence herbicidal rating ([2]; rate 0.0625 kg/ha) | CASOB preemergence herbicidal rating ([5]; rate 0.1250 kg/ha) | ECHCG preemergence herbicidal rating ([8]; rate 0.0625 kg/ha) | GALAP preemergence herbicidal rating ([12]; rate 0.2500 kg/ha) | AMBEL herbicidal rating ([14]; rate 0.0158 kg/ha)
5.0: ZEAMX herbicidal rating ([3]; rate 0.0630 kg/ha) | CASOB preemergence herbicidal rating ([5]; rate 0.2500 kg/ha) | SETVI preemergence herbicidal rating ([7]; rate 0.0625 kg/ha) | SETVI preemergence herbicidal rating ([7]; rate 0.1250 kg/ha) | GLXMAW herbicidal rating ([10]; rate 0.0630 kg/ha)
3.0: ZEAMX herbicidal rating ([3]; rate 0.0158 kg/ha) | AMBEL preemergence herbicidal rating ([4]; rate 0.0625 kg/ha) | Herbicidal rating SAGPY ([6]; 0.4630 kg/ha) | GLXMAW herbicidal rating ([10]; rate 0.0158 kg/ha)
1.0: ABUTH preemergence herbicidal rating ([1]; rate 0.0313 kg/ha) | CASOB preemergence herbicidal rating ([5]; rate 0.0625 kg/ha) | SETVI preemergence herbicidal rating ([7]; rate 0.0156 kg/ha) | SETVI preemergence herbicidal rating ([7]; rate 0.0313 kg/ha) | ECHCG preemergence herbicidal rating ([8]; rate 0.0313 kg/ha) | GALAP preemergence herbicidal rating ([12]; rate 0.0313 kg/ha) | GALAP preemergence herbicidal rating ([12]; rate 0.0625 kg/ha)
6.0: GLXMAW preemergence herbicidal rating ([2]; rate 0.1250 kg/ha) | AMBEL preemergence herbicidal rating ([4]; rate 0.1250 kg/ha) | SETVI preemergence herbicidal rating ([7]; rate 0.2500 kg/ha) | ECHCG preemergence herbicidal rating ([8]; rate 0.2500 kg/ha)
4.0: ECHCG preemergence herbicidal rating ([8]; rate 0.1250 kg/ha) | Herbicidal rating ECHORC ([9]; rate 0.1160 kg/ha, 3-4 weeks after treatment) | Herbicidal rating ECHORC ([9]; rate 0.2310 kg/ha, 3-4 weeks after treatment) | Herbicidal rating ECHORC ([9]; rate 0.4630 kg/ha, 3-4 weeks after treatment) | IPOHE herbicidal rating ([11]; rate 0.0158 kg/ha) | AMBEL herbicidal rating ([14]; rate 0.0315 kg/ha)
7.0: GLXMAW preemergence herbicidal rating ([2]; rate 0.2500 kg/ha) | AMBEL preemergence herbicidal rating ([4]; rate 0.2500 kg/ha) | AMBEL herbicidal rating ([14]; rate 0.0630 kg/ha)
9.0: ABUTH preemergence herbicidal rating ([1]; rate 0.0625 kg/ha) | ABUTH preemergence herbicidal rating ([1]; rate 0.1250 kg/ha) | ABUTH preemergence herbicidal rating ([1]; rate 0.2500 kg/ha) | IPOHE herbicidal rating ([11]; rate 0.0315 kg/ha) | IPOHE herbicidal rating ([11]; rate 0.0630 kg/ha)
3.5: ZEAMX herbicidal rating ([3]; rate 0.0315 kg/ha) | GLXMAW herbicidal rating ([10]; rate 0.0315 kg/ha)
0.0: ABUTH preemergence herbicidal rating ([1]; rate 0.0156 kg/ha) | GLXMAW preemergence herbicidal rating ([2]; rate 0.0156 kg/ha) | GLXMAW preemergence herbicidal rating ([2]; rate 0.0313 kg/ha) | AMBEL preemergence herbicidal rating ([4]; rate 0.0156 kg/ha) | AMBEL preemergence herbicidal rating ([4]; rate 0.0313 kg/ha) | CASOB preemergence herbicidal rating ([5]; rate 0.0156 kg/ha) | CASOB preemergence herbicidal rating ([5]; rate 0.0313 kg/ha) | Herbicidal rating SAGPY ([6]; 0.1160 kg/ha) | Herbicidal rating SAGPY ([6]; 0.2310 kg/ha) | ECHCG preemergence herbicidal rating ([8]; rate 0.0156 kg/ha) | GALAP preemergence herbicidal rating ([12]; rate 0.0156 kg/ha) | GALAP preemergence herbicidal rating ([12]; rate 0.1250 kg/ha) | Herbicidal rating CYPSE ([13]; 0.1160 kg/ha) | Herbicidal rating CYPSE ([13]; 0.2310 kg/ha) | Herbicidal rating CYPSE ([13]; 0.4630 kg/ha)

C#CCOC(=O)CC1SC(=Nc2cc(-n3c(=O)cc(C(F)(F)F)n(C)c3=O)c(F)cc2Cl)N(CC=C)C1=O (stereo not shown) [Compound 67, 2-Propynyl 3-allyl-2-{{2-chloro-5-[3,6-dihydro-3-methyl-2,6-dioxo-4-(trifluoromethyl)-1(2H)-pyrimidinyl]-4-fluorophenyl}imino}-4-oxo-5-thiazolidineacetate]
2.0: Preemergence herbicidal rating GLXMAW ([2]; rate 0.0625 kg/ha) | Preemergence herbicidal rating GLXMAW ([2]; rate 0.1250 kg/ha) | Preemergence herbicidal rating GLXMAW ([2]; rate 0.2500 kg/ha) | Preemergence herbicidal rating CASOB ([5]; rate 0.1250 kg/ha) | Preemergence herbicidal rating CASOB ([5]; rate 0.2500 kg/ha)
9.0: Preemergence herbicidal rating ABUTH ([1]; rate 0.0313 kg/ha) | Preemergence herbicidal rating ABUTH ([1]; rate 0.0625 kg/ha) | Preemergence herbicidal rating ABUTH ([1]; rate 0.2500 kg/ha) | IPOHE herbicidal rating ([11]; rate 0.0158 kg/ha) | IPOHE herbicidal rating ([11]; rate 0.0315 kg/ha) | IPOHE herbicidal rating ([11]; rate 0.0630 kg/ha)
4.0: SAGPY herbicidal effect rating ([6]; 0.0625 kg/ha) | SAGPY herbicidal effect rating ([6]; 0.1250 kg/ha) | Herbicidal rating ECHORC ([9]; Rate 0.0625 kg/ha, rated 3 to 4 weeks after treatment)
8.5: GLXMAW herbicidal rating ([10]; rate 0.0158 kg/ha)
3.0: Preemergence herbicidal rating AMBEL ([4]; rate 0.0625 kg/ha) | CYPSE herbicidal effect rating ([13]; 0.0625 kg/ha) | CYPSE herbicidal effect rating ([13]; 0.1250 kg/ha) | CYPSE herbicidal effect rating ([13]; 0.2500 kg/ha)
1.0: Preemergence herbicidal rating ABUTH ([1]; rate 0.0156 kg/ha) | Preemergence herbicidal rating GLXMAW ([2]; rate 0.0313 kg/ha) | Preemergence herbicidal rating ECHCG ([8]; rate 0.1250 kg/ha) | Preemergence herbicidal rating ECHCG ([8]; rate 0.2500 kg/ha) | Preemergence herbicidal rating GALAP ([12]; rate 0.1250 kg/ha)
0.0: Preemergence herbicidal rating GLXMAW ([2]; rate 0.0156 kg/ha) | Preemergence herbicidal rating AMBEL ([4]; rate 0.0156 kg/ha) | Preemergence herbicidal rating AMBEL ([4]; rate 0.0313 kg/ha) | Preemergence herbicidal rating CASOB ([5]; rate 0.0156 kg/ha) | Preemergence herbicidal rating CASOB ([5]; rate 0.0313 kg/ha) | Preemergence herbicidal rating CASOB ([5]; rate 0.0625 kg/ha) | SAGPY herbicidal effect rating ([6]; 0.0313 kg/ha) | Preemergence herbicidal rating SETVI ([7]; rate 0.0156 kg/ha) | Preemergence herbicidal rating SETVI ([7]; rate 0.0313 kg/ha) | Preemergence herbicidal rating SETVI ([7]; rate 0.0625 kg/ha) | Preemergence herbicidal rating ECHCG ([8]; rate 0.0156 kg/ha) | Preemergence herbicidal rating ECHCG ([8]; rate 0.0313 kg/ha) | Preemergence herbicidal rating ECHCG ([8]; rate 0.0625 kg/ha) | Herbicidal rating ECHORC ([9]; Rate 0.0313 kg/ha, rated 3 to 4 weeks after treatment) | Preemergence herbicidal rating GALAP ([12]; rate 0.0156 kg/ha) | Preemergence herbicidal rating GALAP ([12]; rate 0.0313 kg/ha) | Preemergence herbicidal rating GALAP ([12]; rate 0.0625 kg/ha) | Preemergence herbicidal rating GALAP ([12]; rate 0.2500 kg/ha) | CYPSE herbicidal effect rating ([13]; 0.0313 kg/ha)
6.0: SAGPY herbicidal effect rating ([6]; 0.2500 kg/ha) | Preemergence herbicidal rating SETVI ([7]; rate 0.1250 kg/ha) | AMBEL herbicidal rating ([14]; rate 0.0158 kg/ha)
8.0: ZEAMX herbicidal rating ([3]; rate 0.0315 kg/ha) | ZEAMX herbicidal rating ([3]; rate 0.0630 kg/ha)
7.5: ZEAMX herbicidal rating ([3]; rate 0.0158 kg/ha) | GLXMAW herbicidal rating ([10]; rate 0.0315 kg/ha) | GLXMAW herbicidal rating ([10]; rate 0.0630 kg/ha)
7.0: Preemergence herbicidal rating ABUTH ([1]; rate 0.1250 kg/ha) | Preemergence herbicidal rating AMBEL ([4]; rate 0.1250 kg/ha) | Preemergence herbicidal rating AMBEL ([4]; rate 0.2500 kg/ha) | Preemergence herbicidal rating SETVI ([7]; rate 0.2500 kg/ha) | AMBEL herbicidal rating ([14]; rate 0.0315 kg/ha) | AMBEL herbicidal rating ([14]; rate 0.0630 kg/ha)
5.0: Herbicidal rating ECHORC ([9]; Rate 0.1250 kg/ha, rated 3 to 4 weeks after treatment) | Herbicidal rating ECHORC ([9]; Rate 0.2500 kg/ha, rated 3 to 4 weeks after treatment)
